Results reported in article PMC8187479, “Sugar phosphate activation of the stress sensor eIF2B” (Nature Communications, 2021).

The molecules below were run against T1, eIF2Bα (Homo sapiens, UniProt Q14232) (assay: MIDAS (mass spectrometry integrated with equilibrium dialysis) metabolite binding screen). Settings: MIDAS metabolite binding screen with eIF2Bα; sheet "eIF2Ba".
T1 construct: made in house; host or cells: E. coli BL21(DE3)
T1 sequence (Q14232 1-305): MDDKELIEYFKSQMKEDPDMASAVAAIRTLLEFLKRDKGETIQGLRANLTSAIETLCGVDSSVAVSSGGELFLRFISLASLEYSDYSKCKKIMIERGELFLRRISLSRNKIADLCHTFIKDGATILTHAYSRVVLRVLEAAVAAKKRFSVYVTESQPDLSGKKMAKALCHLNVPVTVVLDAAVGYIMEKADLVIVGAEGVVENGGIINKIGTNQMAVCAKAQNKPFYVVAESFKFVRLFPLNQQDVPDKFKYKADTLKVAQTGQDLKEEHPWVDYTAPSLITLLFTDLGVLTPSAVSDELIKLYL
Outline: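 Hits called at Storey q < 0.1 on z-scores of PCA-corrected log2 fold change between protein and metabolite chambers, quantified by FIA-MS in triplicate.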

SMILES | log2(corrected fold change)
CCCC(=O)SCCNC(=O)CCNC(=O)[C@H](O)C(C)(C)COP(=O)(O)OP(=O)(O)OC[C@H]1O[C@@H](n2cnc3c(N)ncnc32)[C@H](O)[C@@H]1OP(=O)(O)O [Butyryl coenzyme A] | 0.07019
Nc1ccn([C@@H]2O[C@H](COP(=O)(O)OP(=O)(O)OCC(O)CO)[C@@H](O)[C@H]2O)c(=O)n1 (some centres unmarked) [CDP-Glycerol] | 0.002705
NCCOP(=O)(O)OP(=O)(O)OC[C@H]1O[C@@H](n2ccc(N)nc2=O)[C@H](O)[C@@H]1O [CDP-ethanolamine] | -0.00979
C[N+](C)(C)CCOP(=O)([O-])OC[C@H](O)CO [Choline glycerophosphate] | -0.09086
O=C(O)[C@H]1C[C@@H](O)CN1 [Cis-4-Hydroxy-D-proline] | 0.008003
CC(O)(CC(=O)O)C(=O)O (centres unmarked) [Citramalate] | -0.0058
O=C(O)CC(O)(CC(=O)O)C(=O)O [Citric acid] | -0.01609
CC(C)(COP(=O)(O)OP(=O)(O)OC[C@H]1O[C@@H](n2cnc3c(N)ncnc32)[C@H](O)[C@@H]1OP(=O)(O)O)[C@@H](O)C(=O)NCCC(=O)NCCS [Coenzyme A] | 0.05668
Nc1nc2c(ncn2[C@@H]2O[C@@H]3COP(=O)(O)O[C@H]3[C@H]2O)c(=O)[nH]1 [Cyclic GMP] | 0.01224
NCCS [Cysteamine] | 0.01963
Nc1ccn([C@@H]2O[C@H](COP(=O)(O)OP(=O)(O)O)[C@@H](O)[C@H]2O)c(=O)n1 [Cytidine 5-diphosphate] | 0.02612
C[N+](C)(C)CCOP(=O)(O)OP(=O)([O-])OC[C@H]1O[C@@H](n2ccc(N)nc2=O)[C@H](O)[C@@H]1O [Cytidine 5-diphosphocholine] | -0.000615
Nc1ccn([C@@H]2O[C@H](COP(=O)(O)OP(=O)(O)OP(=O)(O)O)[C@@H](O)[C@H]2O)c(=O)n1 [Cytidine 5-triphosphate] | 0.04784
O=C(O)[C@@H](O)[C@H](O)[C@H](O)CO [D-Arabinonic acid] | -0.01209
OC[C@@H](O)C(O)[C@H](O)CO [D-Arabitol] | 0.006339
OC[C@H]1O[C@@H](O[C@H]2[C@H](O)[C@@H](O)[C@H](O)O[C@@H]2CO)[C@H](O)[C@@H](O)[C@@H]1O [D-Cellobiose] | -0.03103
O=C(O)[C@H](O)[C@@H](O)[C@H](O)[C@H](O)CO [D-Gluconic acid] | -0.01138
N[C@H]1C(O)O[C@H](COP(=O)(O)O)[C@@H](O)[C@@H]1O (stereo partly drawn) [D-Glucosamine 6-phosphate] | -0.005422
OC[C@H]1OC(O)[C@H](O)[C@@H](O)[C@@H]1O (stereo partly drawn) [D-Glucose] | -0.01874
O=C[C@H](O)[C@@H](O)[C@H](O)[C@H](O)C(=O)O [D-Glucuronic acid] | -0.01884
O=C1O[C@H]2[C@H](OC(O)[C@@H]2O)[C@@H]1O (stereo partly drawn) [D-Glucurono-6,3-lactone] | 0.01187
N[C@H](CCC(=O)O)C(=O)O [D-Glutamic acid] | -0.01634
O=C[C@H](O)CO [D-Glyceraldehyde] | -0.02892
O=C(O)CC[C@@H](O)C(=O)O [D-Hydroxyglutaric acid] | -0.0058
C[C@@H](O)C=O [D-Lactaldehyde] | -0.01671
OC[C@H]1O[C@@H](O[C@H]2[C@H](O)[C@@H](O)[C@H](O)O[C@@H]2CO)[C@H](O)[C@@H](O)[C@H]1O [D-Lactose] | -0.002139
CC(C)C[C@@H](O)C(=O)O [D-Leucic acid] | -0.0302
OC[C@H]1O[C@H](O[C@H]2[C@H](O)[C@@H](O)[C@H](O)O[C@@H]2CO)[C@H](O)[C@@H](O)[C@@H]1O [D-Maltose] | -0.003614

Same assay, conditions: MIDAS screen, sheet eIF2Ba; metabolites screened in pools 1-4; p-value and q-value given

SMILES | log2(corrected fold change)
NCCCCCN [Cadaverine] | 0.2219
C[N+](C)(C)CC(O)CC(=O)[O-] (centres unmarked) [Carnitine] | -0.03799
C[N+](C)(C)CCO [Choline] | -0.1774
Nc1c(C(=O)O)c2nc3c(C(=O)O)cccc3oc-2cc1=O [Cinnabarinic Acid] | -0.1918
C/C(=C/C(=O)O)C(=O)O [Citraconic acid] | 0.0972
CN(CC(=O)O)C(=N)N [Creatine] | 0.06671
C/C=C/C(=O)SCCNC(=O)CCNC(=O)[C@H](O)C(C)(C)COP(=O)(O)OP(=O)(O)OC[C@H]1O[C@@H](n2cnc3c(N)ncnc32)[C@H](O)[C@@H]1OP(=O)(O)O [Crotonoyl coenzyme A] | -2.153
Nc1ccn([C@@H]2O[C@H](CO)[C@@H](O)[C@H]2O)c(=O)n1 [Cytidine] | 0.2698
O=C(O)C(O)COP(=O)(O)O [D-3-Phosphoglyceric acid] | 0.07991
N[C@H](CC(=O)O)C(=O)O [D-Aspartate] | 0.03257
O=C1OC[C@@H](O)[C@H]1O [D-Erythrono-1,4-lactone] | -0.2396
O=C(COP(=O)(O)O)[C@@H](O)[C@H](O)[C@H](O)COP(=O)(O)O [D-Fructose 1,6-bisphosphate] | -0.7792
O=P(O)(O)OC[C@H]1OC(O)(CO)[C@@H](O)[C@@H]1O (stereo partly drawn) [D-Fructose 6-phosphate] | -0.1344
O=C(CO)[C@@H](O)[C@H](O)[C@H](O)CO [D-Fructose] | -0.09045
O=P(O)(O)O[C@H]1O[C@H](CO)[C@H](O)[C@H](O)[C@H]1O [D-Galactose 1-phosphate] | -0.1344
O=C[C@H](O)[C@@H](O)[C@@H](O)[C@H](O)CO [D-Galactose] | -0.09045
N[C@H]1C(O)O[C@H](CO)[C@@H](O)[C@@H]1O (stereo partly drawn) [D-Glucosamine] | 0.1378
O=P(O)(O)OC[C@H]1O[C@H](OP(=O)(O)O)[C@H](O)[C@@H](O)[C@@H]1O [D-Glucose 1,6-bisphosphate] | -0.7792
O=P(O)(O)O[C@H]1O[C@H](CO)[C@@H](O)[C@H](O)[C@H]1O [D-Glucose 1-phosphate] | -0.1344
O=C[C@H](O)COP(=O)(O)O [D-Glyceraldehyde 3-phosphate] | 0.09175
O=P(O)(O)OC[C@H](O)CO [D-Glycerol 1-phosphate] | 0.1183
O=P(O)(O)OC[C@H]1OC(O)[C@@H](O)[C@@H](O)[C@@H]1O (stereo partly drawn) [D-Mannose 6-phosphate] | -0.1344
